Values after ≈ are worked out from the molar mass of the structure shown. Where two headings read alike, the source gives them in different places. Blank lines part the entries; values can stand above or below the compound they belong to.
Key:
[1] = Solubility testing in biorelevant media (SGF, FaSSIF, FeSSIF) and water, shaken at 37° C. for up to 24 hours; type: physicochemical; conditions: for Solubility (mg/mL) 0.5 h / solubility / solubility at 0.5 h: 37° C.; for solubility / solubility at 0.5 h: 37 °C, thermodynamic from solid; for time until dissolved in each medium: shaking at 37° C., about 15 mg in 3 mL of each of the 4 media; for solubility at 0.5 h: read-out: Solubility (mg/mL) 0.5 h
Procedure: (§1) HPLC analysis was performed with an Agilent HPLC 1260 series instrument.
Compound 1 Form A, Compound 2 Form A and Compound 9 Form A were tested for stability in three biorelevant media and water at 37° C. for 0.5, 2 and 24 hours. About 15 mg of Compound 1 Form A, Compound 2 Form A and Compound 9 Form A were weighted into four separate vials each and to each set of vials was added 3 mL of one of the following biorelevant media: simulated gastric […] fluid (SGF), fasted state simulated intestinal fluid (FaSSIF), fed state simulated intestinal fluid (FeSSIF), and water. All samples were shaken at 200 rpm at 37° C. for up to 24 hours. […] Compound 9 Form A dissolved in each medium after about 15 minutes of shaking at 37° C. Compound 1 Form A dissolved in each medium over the course of about 2 hours of shaking at 37° C. […] The results of the solubility test are summarized below in Table 18: […]

[2] = Estimated solubility test: medium added stepwise at rt until the solid dissolved; type: physicochemical; conditions: for solubility: thermodynamic from solid
Procedure: As all of the samples dissolved after about 2 hours, estimated solubility testing was conducted, wherein about 5 mg of Compound 1 Form A, Compound 2 Form A and Compound 9 Form A were weighed into four separate vials each and each media was added stepwise while stirring at rt until the solid dissolved.

[3] = Solid stability at 60° C. and 40° C./75%RH for 7 days (purity by HPLC, solid form); type: physicochemical; conditions: for Purity @ 0 d (Area%): start of solid stability test; for Purity @ 0 d (Area%) / Purity @ 7 d (Area%) 40° C./75%RH / Purity @ 7 d (Area%) 60° C.: HPLC; for Solid form @ 7 d 40° C./75%RH / Purity @ 7 d (Area%) 40° C./75%RH: 7 d at 40° C./75%RH; for Solid form @ 7 d 60° C. / Purity @ 7 d (Area%) 60° C.: 7 d at 60° C.
Procedure: as §1
Solid stability of Compound 1 Form A, Compound 2 Form A and Compound 9 Form A were evaluated at 60° C. and 40° C./75%RH for 7 days. Purity was determined via HPLC. […] All tested compounds retained the same solid form after the 7-day experiment.

β2 adrenergic receptor = β2 adrenergic receptor (Homo sapiens, UniProt P07550); assay: Agonism of the β2 adrenergic receptor (statement, no method given)
Chain of β2 adrenergic receptor (P07550 whole entry): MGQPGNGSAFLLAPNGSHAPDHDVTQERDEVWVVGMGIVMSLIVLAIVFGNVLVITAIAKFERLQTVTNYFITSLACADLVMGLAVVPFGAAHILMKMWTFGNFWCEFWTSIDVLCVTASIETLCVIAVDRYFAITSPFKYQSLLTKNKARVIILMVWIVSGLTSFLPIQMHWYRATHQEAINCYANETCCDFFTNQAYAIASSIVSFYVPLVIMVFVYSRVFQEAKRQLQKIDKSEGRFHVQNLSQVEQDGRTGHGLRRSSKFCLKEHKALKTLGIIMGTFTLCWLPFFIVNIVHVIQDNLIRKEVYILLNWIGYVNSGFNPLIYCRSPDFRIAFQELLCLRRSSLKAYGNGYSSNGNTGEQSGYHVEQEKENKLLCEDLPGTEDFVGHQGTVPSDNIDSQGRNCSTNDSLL

[4] = Blood-brain barrier crossing and accumulation in cerebral spinal fluid (statement, no method given)
[5] = Dynamic vapor sorption (DVS) moisture sorption/desorption; type: physicochemical; conditions: for XRPD pattern after DVS testing: after DVS full cycle
Procedure: Moisture sorption/desorption data was collected on a DVS Intrinsic (SMS, UK). The sample was placed into a tared sample chamber and automatically weighed. The sample was dried at 40° C. until the dm/dt was less than 0.002% and cooled to 25° C. The instrument parameters were set as detailed below. Step time (min): 60 min; Sample temperature: 25° C.; Cycle: Full cycle; Adsorption: 0, 10, 20, 30, 40, 50, 60, 70, 80, 90; Desorption: 80, 70, 60, 50, 40, 30, 20, 10, 0; Save Data Rate: 5 s; Total flow rate: 200 sccm; Post experiment total flow: 200 sccm.

[6] = SGF, FaSSIF, FeSSIF and water, SGF, FaSSIF, FeSSIF and water, about 15 mg in 3 mL, read-out: solubility in each medium
[7] = FaSSIF, fassif, FaSSIF, shaken 200 rpm, 2 and 24 h, read-out: Solubility (mg/mL) 2 and 24 h
[8] = FaSSIF, fassif, FaSSIF, shaken 200 rpm
[9] = FeSSIF, fessif, FeSSIF, shaken 200 rpm, 2 and 24 h, read-out: Solubility (mg/mL) 2 and 24 h
[10] = FeSSIF, fessif, FeSSIF, shaken 200 rpm
[11] = SGF, simulated gastric fluid, SGF, shaken 200 rpm, 2 and 24 h, read-out: Solubility (mg/mL) 2 and 24 h
[12] = SGF, simulated gastric fluid, SGF, shaken 200 rpm
[13] = water, water, Water, shaken 200 rpm, 2 and 24 h, read-out: Solubility (mg/mL) 2 and 24 h
[14] = water, water, Water, shaken 200 rpm

Solubility (mg/mL) 0.5 h ([1]; FaSSIF, shaken 200 rpm, listed as Compound 1 Form A): 4.33 mg/mL (≈ 19.7 mM) | Solubility (mg/mL) 0.5 h ([1]; FeSSIF, shaken 200 rpm, listed as Compound 1 Form A): 4.41 mg/mL (≈ 20.1 mM) | Solubility (mg/mL) 0.5 h ([1]; SGF, shaken 200 rpm, listed as Compound 1 Form A): 4.76 mg/mL (≈ 21.7 mM) | solubility [1, 6]: > 5 mg/mL | Solubility (mg/mL) 0.5 h ([1]; Water, shaken 200 rpm, listed as Compound 1 Form A): 4.19 mg/mL (≈ 19.1 mM) | pH 24 h ([1]; pH of solubility sample in FaSSIF at 24 h (control 6.53), listed as Compound 1 Form A): 8.03 | pH 24 h ([1]; pH of solubility sample in FeSSIF at 24 h (control 5.01), listed as Compound 1 Form A): 5.52 | pH 24 h ([1]; pH of solubility sample in SGF at 24 h (control 1.19), listed as Compound 1 Form A): 1.20 | pH 24 h ([1]; pH of solubility sample in water at 24 h (control 5.26), listed as Compound 1 Form A): 10.35 | time until dissolved in each medium ([1]; listed as Compound 1 Form A): about 2 hours | Solubility (mg/mL) FaSSIF ([2]; FaSSIF, listed as Compound 1 Form A): ~6.3 mg/mL (≈ 28.7 mM) | Solubility (mg/mL) FeSSIF ([2]; FeSSIF, listed as Compound 1 Form A): ~9.1 mg/mL (≈ 41.5 mM) | Solubility (mg/mL) SGF ([2]; SGF, listed as Compound 1 Form A): ~12.7 mg/mL (≈ 57.9 mM) | Solubility (mg/mL) Water ([2]; water, listed as Compound 1 Form A): ~5.0 mg/mL (≈ 22.8 mM) | Purity @ 0 d (Area%) ([3]; listed as Compound 1 Form A): 96.09% Area% | decrease in purity ([3]; 7 d, under both sets of conditions (60° C. and 40° C./75%RH)): ~ 0.3% | Solid form @ 7 d 40° C./75%RH [3]: unchanged | Purity @ 7 d (Area%) 40° C./75%RH ([3]; listed as Compound 1 Form A): 95.78% Area% | Solid form @ 7 d 60° C. [3]: unchanged | Purity @ 7 d (Area%) 60° C. ([3]; listed as Compound 1 Form A): 95.76% Area% | activity at the β2 adrenergic receptor (β2 adrenergic receptor): low concentration partial agonist
SMILES: CC(C)(C)NC[C@H](O)c1cccc(C#N)n1 [Compound 1, (S)-6-(2-(tert-butylamino)-1-hydroxyethyl)picolinonitrile]
ability to cross the blood-brain barrier and accumulate in the cerebral spinal fluid [4]: unexpectedly high ability to cross the blood-brain barrier

solubility [1, 7]: > 5 mg/mL | solubility at 0.5 h [1, 8]: > 5 mg/mL | solubility [1, 9]: > 5 mg/mL | solubility at 0.5 h [1, 10]: > 5 mg/mL | solubility [1, 11]: > 5 mg/mL | solubility at 0.5 h [1, 12]: > 5 mg/mL | solubility [1, 6]: > 5 mg/mL | dissolution in each of the 4 media ([1]; at rt, about 15 mg in 3 mL): dissolved immediately | pH 24 h ([1]; pH of solubility sample in FaSSIF at 24 h (control 6.53)): 6.47 | pH 24 h ([1]; pH of solubility sample in FeSSIF at 24 h (control 5.01)): 5.01 | pH 24 h ([1]; pH of solubility sample in SGF at 24 h (control 1.19)): 1.11 | pH 24 h ([1]; pH of solubility sample in water at 24 h (control 5.26)): 5.24 | solubility [1, 13]: > 5 mg/mL | solubility at 0.5 h [1, 14]: > 5 mg/mL | solubility ([2]; FaSSIF, FaSSIF, read-out: Solubility (mg/mL) FaSSIF): > 100 mg/mL | solubility ([2]; FeSSIF, FeSSIF, read-out: Solubility (mg/mL) FeSSIF): > 100 mg/mL | solubility ([2]; SGF, simulated gastric fluid, SGF, read-out: Solubility (mg/mL) SGF): > 101 mg/mL | solubility ([2]; water, water, read-out: Solubility (mg/mL) Water): > 102 mg/mL | Purity @ 0 d (Area%) [3]: 99.27% Area% | Solid form @ 7 d 40° C./75%RH [3]: unchanged | Purity @ 7 d (Area%) 40° C./75%RH [3]: 99.27% Area% | Solid form @ 7 d 60° C. [3]: unchanged | Purity @ 7 d (Area%) 60° C. [3]: 99.25% Area% | water uptake at 80%RH ([5]; DVS, 25° C.): 0.58% | XRPD pattern after DVS testing [5]: remained unchanged
SMILES: CC(C)(C)NC[C@H](O)c1cccc(C#N)n1.Cl [Compound 2]

water uptake at 80%RH ([5]; DVS, 25° C.): 1.25% | water uptake at 90%RH ([5]; DVS, 25° C., 90%RH): 2.77% | XRPD pattern after DVS testing [5]: remained unchanged
SMILES: CC(C)(C)NC[C@H](O)c1cccc(C#N)n1.Cc1ccc(S(=O)(=O)O)cc1 [Compound 5]

solubility [1, 7]: > 5 mg/mL | solubility at 0.5 h [1, 8]: > 5 mg/mL | solubility [1, 9]: > 5 mg/mL | solubility at 0.5 h [1, 10]: > 5 mg/mL | solubility [1, 11]: > 5 mg/mL | solubility at 0.5 h [1, 12]: > 5 mg/mL | pH 24 h ([1]; pH of solubility sample in FaSSIF at 24 h (control 6.53), listed as Compound 9 Form A): 6.51 | pH 24 h ([1]; pH of solubility sample in FeSSIF at 24 h (control 5.01), listed as Compound 9 Form A): 5.01 | pH 24 h ([1]; pH of solubility sample in SGF at 24 h (control 1.19), listed as Compound 9 Form A): 1.18 | pH 24 h ([1]; pH of solubility sample in water at 24 h (control 5.26), listed as Compound 9 Form A): 5.68 | time until dissolved in each medium ([1]; listed as Compound 9 Form A): About 15 minutes | solubility [1, 13]: > 5 mg/mL | solubility at 0.5 h [1, 14]: > 5 mg/mL | Solubility (mg/mL) FaSSIF ([2]; FaSSIF, listed as Compound 9 Form A): >71.4 mg/mL | Solubility (mg/mL) FeSSIF ([2]; FeSSIF, listed as Compound 9 Form A): >101.4 mg/mL | Solubility (mg/mL) SGF ([2]; SGF, listed as Compound 9 Form A): >71.4 mg/mL | Solubility (mg/mL) Water ([2]; water, listed as Compound 9 Form A): >71.3 mg/mL | Purity @ 0 d (Area%) ([3]; listed as Compound 9 Form A): 98.62% Area% | Purity @ 7 d (Area%) 40° C./75%RH ([3]; listed as Compound 9 Form A): 98.49% Area% | Purity @ 7 d (Area%) 60° C. ([3]; listed as Compound 9 Form A): 98.62% Area% | water uptake at 80%RH ([5]; DVS, 25° C.): 1.05% | XRPD pattern after DVS testing [5]: remained unchanged
SMILES: CC(C)(C)NC[C@H](O)c1cccc(C#N)n1 [Compound 9]

Source: patent US20230219892A1, “FORMS AND COMPOSITIONS OF A BETA ADRENERGIC AGONIST” (Curasen Therapeutics, Inc., priority 2020, published 2023)
